Laboratory results: ChEMBL document CHEMBL3784958, “Disposition of sodium valproate in epileptic patients” (Br J Clin Pharmacol, 1978)

Assays:
[1] = Half life in epileptic patient (6 patients) at 800 mg, iv administered as single dose by gas liquid chromatographic method; format: ADME, organism-based; details: human, in vivo
[2] = Volume of distribution (area) in healthy volunteer (6 volunteers) at 800 mg, iv administered as single dose by gas liquid chromatographic method; format: ADME, organism-based; details: human, in vivo
[3] = Cmax in epileptic patient (6 patients) at 800 mg, po administered as single dose by gas liquid chromatographic method; format: ADME, organism-based; design: dose 800 mg, route oral; details: human, in vivo
Homo sapiens [4] = experiment: Extrapolated volume of distribution in epileptic patient (6 patients) at 800 mg, po administered as single dose by gas liquid chromatographic method; format: ADME, organism-based; details: in vivo
[5] = Extrapolated volume of distribution in epileptic patient (6 patients) at 800 mg, iv administered as single dose by gas liquid chromatographic method; format: ADME, organism-based; details: human, in vivo
Homo sapiens [6] = experiment: Volume of distribution (area) in epileptic patient (6 patients) at 800 mg, po administered as single dose by gas liquid chromatographic method; format: ADME, organism-based; details: in vivo
[7] = Apparent volume of distribution in epileptic patient (6 patients) at 800 mg, iv administered as single dose by gas liquid chromatographic method; format: ADME, organism-based; details: human, in vivo, read-out: Vd(app)
[8] = Total clearance in epileptic patient (6 patients) at 800 mg, iv administered as single dose by gas liquid chromatographic method; format: ADME, organism-based; details: human, in vivo
[9] = Elimination rate constant in epileptic patient (6 patients) at 800 mg, iv administered as single dose by gas liquid chromatographic method; format: ADME, organism-based; details: human, in vivo
[10] = Tmax in epileptic patient (6 patients) at 800 mg, po administered as single dose by gas liquid chromatographic method; format: ADME, organism-based; details: human, in vivo
[11] = Initial plasma concentration in epileptic patient (6 patients) at 800 mg, iv administered as single dose by gas liquid chromatographic method; format: ADME, organism-based; details: human
[12] = Elimination rate constant in epileptic patient (6 patients) at 800 mg, po administered as single dose by gas liquid chromatographic method; format: ADME, organism-based; details: human, in vivo
[13] = AUC (0 to 48 hrs) in epileptic patient (6 patients) at 800 mg, po administered as single dose by gas liquid chromatographic method; format: ADME, organism-based; design: dose 800 mg, time < 48 hr, route oral; details: human, in vivo
[14] = Elimination rate constant in healthy volunteer (6 volunteers) at 800 mg, iv administered as single dose by gas liquid chromatographic method; format: ADME, organism-based; details: human, in vivo
[15] = Oral bioavailability in epileptic patient (6 patients) at 800 mg administered as single dose by gas liquid chromatographic method; format: ADME, organism-based; details: human, in vivo
[16] = Volume of distribution (area) in epileptic patient (6 patients) at 800 mg, iv administered as single dose by gas liquid chromatographic method; format: ADME, organism-based; details: human, in vivo
[17] = AUC (0 to infinity) in epileptic patient (6 patients) at 800 mg, po administered as single dose by gas liquid chromatographic method; format: ADME, organism-based; design: dose 800 mg, route oral, time infinity; details: human, in vivo
Homo sapiens [18] = experiment: Toxicity in epileptic patient (6 patients) at 800 mg, po and iv administered as single dose by gas liquid chromatographic method; format: organism-based; details: in vivo
[19] = Apparent volume of distribution in healthy volunteer (6 volunteers) at 800 mg, iv administered as single dose by gas liquid chromatographic method; format: ADME, organism-based; details: human, in vivo, read-out: Vd(app)
[20] = AUC (0 to 48 hrs) in epileptic patient (6 patients) at 800 mg, iv administered as single dose by gas liquid chromatographic method; format: ADME, organism-based; design: dose 800 mg, time < 48 hr, route intravenous; details: human, in vivo
[21] = Half life in healthy volunteer (6 volunteers) at 800 mg, iv administered as single dose by gas liquid chromatographic method; format: ADME, organism-based; details: human, in vivo
[22] = Half life in epileptic patient (6 patients) at 800 mg, po administered as single dose by gas liquid chromatographic method; format: ADME, organism-based; details: human, in vivo
[23] = AUC (0 to infinity) in epileptic patient (6 patients) at 800 mg, iv administered as single dose by gas liquid chromatographic method; format: ADME, organism-based; design: dose 800 mg, route intravenous, time infinity; details: human, in vivo
[24] = Total clearance in healthy volunteer (6 volunteers) at 800 mg, iv administered as single dose by gas liquid chromatographic method; format: ADME, organism-based; details: human, in vivo
[25] = Tmax in healthy volunteer (6 volunteers) at 800 mg, po administered as single dose by gas liquid chromatographic method; format: ADME, organism-based; details: human, in vivo

CCCC(CCC)C(=O)[O-].[Na+] [VALPROATE SODIUM]
half-life [1]: 9 h
Vd [2]: 10 L
Cmax [3]: 71.8 µg/mL
Vd (Homo sapiens [4]): 13.1 L
Vd [5]: 13.8 L
Vd (Homo sapiens [6]): 12.9 L
Vd [7]: 0.175 L/kg
clearance [8]: 16.7 mL/min
k el [9]: 2.21e-05 s⁻¹
Tmax [10]: 1.2 h
C0 [11]: 58.5 µg/mL
k el [12]: 2.17e-05 s⁻¹
AUC(0-t) at 48 h [13]: 749 µg·h/mL
k el [14]: 1.52e-05 s⁻¹
bioavailability [15]: 96%
Vd [16]: 12.8 L
AUC(0-inf) [17]: 771 µg·h/mL
Activity (Homo sapiens [18]): Non-toxic
Vd [19]: 0.147 L/kg
AUC(0-t) at 48 h [20]: 785 µg·h/mL
half-life [21]: 12.8 h
half-life [22]: 9 h
AUC(0-inf) [23]: 807 µg·h/mL
clearance [24]: 9 mL/min
Tmax [25]: 1.8 h
